Results published in article PMC11421016, “Biotransformation and Epithelial Toxicity of Prenylated Phenolics from Licorice Roots (Glycyrrhiza spp.) in 3D Apical-Out Mucus-Producing Human Enteroids” (Journal of Agricultural and Food Chemistry, 2024).
Like-named read-outs stand apart in the source and are kept apart here.

Assays:
[1] = test system: human ileal apical-in enteroids; assay: Cell viability by WST-1 assay in apical-in enteroids; type: cell-based; conditions: 4 h
Method: Cytotoxicity and effects on cell viability after exposure to glab, licoA, and glycy in apical-out and apical-in enteroids (6.25–500 μg mL^–1) and proliferating Caco-2 cells (3.13–100 μg mL^–1) were determined by LDH leakage (Section 2.6.1) and WST-1 assays (Section 2.6.2), respectively. For this, stock solutions of 50 mg mL^–1 of glab, licoA, and glycy in DMSO were used. […] An overview of the experimental conditions for the exposure experiments with glab, licoA, and glycy is shown in Table S2 (Supporting Information). […] After 3 days in ODM, the effects on cytotoxicity and cell viability of glab, licoA, and glycy in apical-out and apical-in enteroids (passages between 3 and 17) were assessed after 4 and 24 h of incubation. […]
Effects on cell viability after stimulation by glab, licoA, and glycy were assessed by measuring cleavage of the tetrazolium salt WST-1 to formazan catalyzed by cellular mitochondrial dehydrogenases and analyzed using a WST-1 cell viability kit (PromoKine, Heidelberg, Germany), according to the manufacturer’s instructions. Cell viability was expressed as the percentage of the control cells (enteroids or Caco-2 cells grown in a medium) and was calculated with eq 2. […]
For apical-in enteroids, the cleavage of WST-1 to formazan was assessed in the MG. […]

Gram-positive bacteria = test system: Gram-positive bacteria; set-up: method as in PMID 36377761; conditions: against Gram-positive bacteria, cited from earlier work
[2] = test system: human ileal apical-in enteroids; assay: Cytotoxicity by LDH leakage assay in apical-in enteroids; type: cell-based; conditions: 4 h, cutoff 25% vs negative control
Method: (§1) Cytotoxicity and effects on cell viability after exposure to glab, licoA, and glycy in apical-out and apical-in enteroids (6.25–500 μg mL^–1) and proliferating Caco-2 cells (3.13–100 μg mL^–1) were determined by LDH leakage (Section 2.6.1) and WST-1 assays (Section 2.6.2), respectively. For this, stock solutions of 50 mg mL^–1 of glab, licoA, and glycy in DMSO were used. […] An overview of the experimental conditions for the exposure experiments with glab, licoA, and glycy is shown in Table S2 (Supporting Information). In brief, apical-out and apical-in enteroids were grown for 7–10 days in OGM (∼200 enteroids per dome), after which the medium was changed to ODM (supplemented with 5 μM DAPT) to initiate enteroid differentiation. To generate apical-out enteroids, MG was removed from apical-in enteroids in OGM at day 7–10, as described in Section 2.3, and suspended in supplemented ODM. After 3 days in ODM, the effects on cytotoxicity and cell viability of glab, licoA, and glycy in apical-out and apical-in enteroids (passages between 3 and 17) were assessed after 4 and 24 h of incubation. For apical-out enteroids in a suspension, enteroids were pelleted by centrifugation (2 min, 200g, RT), after which the ODM was removed and 500 μL of the experimental agent was added. […] Caco-2 cells were grown for 48 h after seeding before experiments (passages 14–19) with proliferating cells and for 21 days after seeding (passages 14–33) with differentiated cells.[17] The medium (DMEM supplemented with FCS) was changed every 2 days. For exposure experiments, Caco-2 cells were incubated with glab, licoA, and glycy in DMEM without FCS, as FCS serves as an exogenous source of LDH.[22]
(§2) Cytotoxic effects of glab, licoA, and glycy were assessed by measuring leakage of intracellular lactate dehydrogenase (LDH) in the supernatant and analyzed using an LDH cytotoxicity detection kit (Roche Applied Science, Almere, The Netherlands), according to the manufacturer’s instructions. The LDH activity in the supernatant was expressed as the percentage of the maximum releasable LDH in enteroids or Caco-2 cells (enteroids or Caco-2 cells treated with 1% (v/v) Triton X-100) and calculated with eq 1. [drawing 1] 1 in which exp. value is the UV absorbance at 492 nm (Tecan Spark or Tecan Infinite 200 Pro, Tecan Group Ltd., Zürich, Switzerland), background control is the medium with corresponding concentration of glab, licoA, or glycy, and high control is the maximum releasable LDH in enteroids or Caco-2 cells. For enteroids, each well was used as its own positive control by taking the total releasable LDH of each well after incubation.

[3] = test system: human apical-in ileal enteroids; assay: Biotransformation in apical-in ileal enteroids (RP-UHPLC-PDA-MSn); type: in vitro ADME; conditions: for biotransformation products formed: identified at the basolateral side; for phase I metabolites: up to 24 h incubation
Method: (§3) Biotransformation of glab, licoA, and glycy in apical-out and apical-in enteroids was evaluated after 0, 4, and 24 h of incubation. For this, apical-out enteroids were stimulated with 50 μg mL^–1 (154 μM) glab, or with 100 μg mL^–1 licoA (296 μM), or 100 μg mL^–1 glycy (272 μM), and apical-in enteroids were stimulated with 50 μg mL^–1 glab (154 μM), 50 μg mL^–1 licoA (148 μM), or 50 μg mL^–1 glycy (136 μM). […] For apical-out enteroids, parent compounds and their transformation products were assessed on the enteroids’ apical (facing the medium) and basolateral side (inside the enteroids) and intracellularly. In apical-in enteroids, parent compounds and metabolites were assessed on the basolateral side (facing the medium). For the apical release, apical-out enteroids were pelleted (250g, 3 min, 4 °C), and the supernatant was used for LC-MS analysis, after which the enteroids were washed with PBS. Enteroids in a suspension in fresh PBS were broken up by vigorously pipetting up and down approximately for 20 times, after which enteroids were pelleted and the supernatant was used to determine basolateral release by using LC-MS. Enteroids were washed with PBS, and the enteroids’ cells in fresh PBS were disrupted on ice with a digital sonifier (Branson Ultrasonics Corporation, Danbury, CT, USA) with the following settings: a 5 s pulse, a 10 s pause, an amplitude of 55%, and 12 cycles. Enteroids were pelleted, and the supernatant was used as a measure for intracellular release and measured with LC-MS.
(§4) Samples were separated on a Thermo Vanquish UHPLC system (Thermo Scientific, San Jose, CA, USA) equipped with a pump, a degasser, an autosampler, and a PDA detector, as described elsewhere.[15] Eluents used were (A) LC-MS-grade MQ + 0.1% FA (v/v) and (B) LC-MS-grade ACN + 0.1% FA (v/v). The elution program was started by running isocratically at 1% B for 1.09 min followed by a 1.09–26.16 min linear gradient to 70% B, a 26.16–27.25 min linear gradient to 100% B, and 27.25–32.70 min isocratically at 100% B. The eluent was adjusted to start conditions in 1.09 min followed by equilibration of 5.45 min.
(§5) Mass spectrometric data were acquired using an LTQ Velos Pro linear ion trap mass spectrometer (Thermo Scientific), equipped with a heated ESI probe coupled in-line to the Vanquish UHPLC system, as described elsewhere.[15] Data were processed using Xcalibur 4.1 (Thermo Scientific).
(§6) Quantification of glab, licoA, glycy, and produced metabolites was based on UV absorbance at 280 nm (glab), 340–390 nm (licoA), and 320–370 nm (glycy). For this, a seven-point calibration (0.01–150 μg mL^–1) curve based on external standards of glab, licoA, and glycy (R^2 > 0.999) was used. UV peaks were integrated using the AVALON integration algorithm with the autocalc function (Xcalibur 4.1). Metabolites were quantified as glab, licoA, or glycy equivalents.

[4] = Cell viability by WST-1 assay in apical-out enteroids; type: cell-based, human; conditions: human
Method: as §1
Effects on cell viability after stimulation by glab, licoA, and glycy were assessed by measuring cleavage of the tetrazolium salt WST-1 to formazan catalyzed by cellular mitochondrial dehydrogenases and analyzed using a WST-1 cell viability kit (PromoKine, Heidelberg, Germany), according to the manufacturer’s instructions. Cell viability was expressed as the percentage of the control cells (enteroids or Caco-2 cells grown in a medium) and was calculated with eq 2. [drawing 2] 2 in which exp. value is the UV absorbance at 450 nm (Tecan Spark or Tecan Infinite 200 Pro) and low control is the spontaneous cleavage of WST-1 to formazan by mitochondrial dehydrogenases in untreated enteroids or Caco-2 cells.

[5] = test system: mouse jejunal apical-in enteroids; set-up: method as in PMID 38086658; conditions: jejunum, cutoff 25%; cited from earlier work
Caco-2 cells = assay: Cytotoxicity by LDH leakage assay in Caco-2 cells; type: cell-based, human; conditions: proliferating and differentiated Caco-2 cells (differentiated: ref 17), cutoff 25%
Method: The human colon adenocarcinoma cell line (Caco-2) was obtained from the American Type Culture Collection (ATCC; Manassas, VA, USA). Caco-2 cells were cultured in DMEM, in a humidified atmosphere of 5% CO2 at 37 °C until 80–90% confluency was reached. Effects on the cytotoxicity and cell viability (Section 2.6) were assessed in proliferating and differentiated Caco-2 cells. The effects on differentiated Caco-2 cells were recently described in our publication.[17] Proliferating and differentiated Caco-2 cells were seeded into 96-well plates at a density of 15,000 cells per cm^2.
Cytotoxicity and effects on cell viability after exposure to glab, licoA, and glycy in apical-out and apical-in enteroids (6.25–500 μg mL^–1) and proliferating Caco-2 cells (3.13–100 μg mL^–1) were determined by LDH leakage (Section 2.6.1) and WST-1 assays (Section 2.6.2), respectively. For this, stock solutions of 50 mg mL^–1 of glab, licoA, and glycy in DMSO were used. […] After 3 days in ODM, the effects on cytotoxicity and cell viability of glab, licoA, and glycy in apical-out and apical-in enteroids (passages between 3 and 17) were assessed after 4 and 24 h of incubation. […]
as §2, with “[drawing 1]” left out, “For enteroids, each well was used as its own positive control by taking the total releasable LDH of each well after incubation.” left out

[6] = test system: human ileal apical-out enteroids; assay: Cytotoxicity by LDH leakage assay in apical-out enteroids; type: cell-based; conditions: human
Method: as §1, §2

[7] = test system: human apical-out ileal enteroids; assay: Biotransformation in apical-out ileal enteroids (RP-UHPLC-PDA-MSn); type: in vitro ADME; conditions: for sulfation (LC-MS analysis): human ileal apical-out and apical-in enteroids; for biotransformation products formed: released on the apical side; for phase I biotransformation products: up to 24 h incubation
Method: as §3, §4, §5, §6

[8] = test system: mouse jejunal apical-out enteroids; set-up: method as in PMID 38086658; conditions: jejunum, cutoff 25%; cited from earlier work
[9] = test system: human CYP enzymes (i.e., CYP3A4); set-up: method as in PMID 17220245, PMID 28774812, PMID 12019199, PMID 26100226; conditions: cited from earlier work
[10] = test system: mouse jejunal apical-out enteroids; set-up: method as in PMID 38086658; conditions: jejunum, cutoff 25%; cited from earlier work; remark: listed apart in the source
[11] = test system: human ileal apical-out enteroids; conditions: 12.5 μg mL^–1 (34–39 μM), 4 h exposure
Method: Effects on barrier integrity of apical-out enteroids after glab, licoA, and glycy exposure were evaluated with a dextran diffusion assay, adapted from Co et al.[14] […] Enteroids were allowed to settle by gravity (5 min) into a pellet, the FITC-dextran 4 kDa was aspirated, and enteroids were washed with DMEM/F12 (3 min, 250g, RT). Enteroids were suspended in fresh DMEM/F12, and they were imaged with an EVOS FL Auto 2 cell imaging system. Images were analyzed using ImageJ software (version 1.52).

[12] = Stability in the medium without enteroids; type: physicochemical; conditions: after 24 h of incubation
Method: as §6

In the case of `CC1(C)C=Cc2c(ccc3c2OC[C@@H](c2ccc(O)cc2O)C3)O1` [glabridin], the “highest nonreducing viability concentration (WST-1)” value [1] is listed as 100 μg mL^–1, the “minimum inhibitory concentration (MIC)” value (Gram-positive bacteria) is listed as 12.5 μg mL^–1 and the “minimum inhibitory concentration (MIC)” value (Gram-positive bacteria; equivalent of 12.5 μg mL^–1) is listed as 39 µM. For the same compound, the “highest nontoxic concentration (LDH)” value ([2]; listed as Glabridin) was 100 μg mL^–1, the “highest nontoxic concentration (LDH)” value ([2]; listed as glab) was “around 300 μM” and the biotransformation products formed [3] was “transformed to their glucuronides”. For the same compound, the “phase I metabolites” value [3] was “no phase I metabolites were identified”, the viability at 4 h, 500 μg mL^–1 [4] was 21 ± 14% and the viability at 4 h, 771 µM [4] was 29%. For the same compound, the highest noncytotoxic concentration [5] was 75 μg mL^–1, the “highest nontoxic concentration (LDH)” value (Caco-2 cells) was “around 75 μM” and the “fold higher concentration for significant cytotoxicity in apical-out vs apical-in enteroids” value [6] was 3-5 fold. For the same compound, the “sulfation (LC-MS analysis)” value [7] was “did not reveal sulfation”, the biotransformation products formed [7] was “glucuronide metabolites” and the “phase I biotransformation products” value [7] was “No phase I biotransformation products”. For the same compound, the highest noncytotoxic concentration [8] was 250 μg mL^–1, the “inhibition of human CYP enzymes (i.e., CYP3A4)” value [9] was “inhibition” and the “highest nonreducing viability concentration” value [10] was 50 μg mL^–1. The “epithelial barrier (membrane) integrity” value [11] was “did not seem to disrupt” and the “recovery in the medium (without enteroids)” value [12] was 101 ± 2.2%.

For `COc1c(CC=C(C)C)c(O)cc2oc(=O)c(-c3ccc(O)cc3O)cc12` [glycycoumarin], the “minimum inhibitory concentration (MIC)” value (Gram-positive bacteria) is given as 12.5 μg mL^–1, the “minimum inhibitory concentration (MIC)” value (Gram-positive bacteria; equivalent of 12.5 μg mL^–1) is given as 34 µM and the “highest nontoxic concentration (LDH)” value [2] is given as “around 300 μM”. The biotransformation products formed [3] was “transformed to their glucuronides”, the “phase I metabolites” value [3] was “no phase I metabolites were identified” and the viability at 4 h, 500 μg mL^–1 [4] was 77 ± 13%. The “highest nontoxic concentration (LDH)” value (Caco-2 cells) was “around 75 μM”, the “fold higher concentration for significant cytotoxicity in apical-out vs apical-in enteroids” value [6] was 3-5 fold and the “cytotoxicity (LDH)” value ([6]; 4 h, 500 μg mL^–1) was −2 ± 2%. For the same compound, the “sulfation (LC-MS analysis)” value [7] was “did not reveal sulfation”, the biotransformation products formed [7] was “glucuronide metabolites” and the “phase I biotransformation products” value [7] was “No phase I biotransformation products”. The “inhibition of human CYP enzymes (i.e., CYP3A4)” value [9] was “inhibition”, the “epithelial barrier (membrane) integrity” value [11] was “did not seem to disrupt” and the “recovery in the medium (without enteroids)” value [12] was 101 ± 3.0%.
